One data set has as its system blood pressure. Nature of the data set: Change in blood pressure in anesthetized rats (Experiment 1). In kind it is in vivo, Male Wister rat. The settings on record: for Change in Blood Pressure (%): 1 mg/kg into tail vein, anesthetized rat, average of 5 data per group; for Blood Pressure: Table 2, class symbols. How it is done:
Male Wister rat (8-week old) was anesthetized by intraperitoneally administering urethane (1.25 g/kg). Polyethylene tube was inserted into femoral artery and connected with a pressure transducer to measure blood pressure.
The test drugs were dissolved in ethanol, diluted with Ringer's solution before use and a dose of 1 mg/kg was administered into tale vein. The maximum concentration of ethanol was 2%. As reference, ethanol-Ringer's solution without containing test drugs was used and the effect was checked in each experiment without failing. The rate of change in blood pressure (%) was determined by average of 5 data per group.

A further data set deals with mouse. Nature of the data set: Acute toxicity upon oral administration (Experiment 6). It counts as in vivo, Male Slc-ddY mouse. The settings on record: mouse (5 weeks old). The text has this:
Using Male Slc-ddY mouse (5 weeks old), acute toxicity upon oral administration (LD50) was examined.

A further data set relates to pulse. Details: species or system Male Wister rat. Particulars: rat, in vivo. How it is done:
Male Wister rat (8-week old) was anesthetized by intraperitoneally administering urethane (1.25 g/kg). A tachometer was operated by R wave of electrocardiogram of exterminal derivation. The effect of the tested 15-keto-PGEs on pulse is evaluated by the value calucurated from the following formula: [formula]

Data on 26 compounds can be found in patent publication US5770759A, “Prostaglandins of the F series” (priority 1987, dated 1998).

In the case of “13,14-dihydro-15-keto-9β,11α-PGF2 methyl ester [Test Drug 3]”, in the data set on blood pressure, the “Change in Blood Pressure (%)” value is on record as “+5%”. On to “13,14-dihydro-15-keto-16,16-dimethyl-PGF2 α ethyl ester [Test Drug 4]”, for which the “Change in Blood Pressure (%)” value in the data set with blood pressure was “+7%”. On to “13,14-dihydro-15-keto-16-desbutyl-16-m-trifluoromethylphenoxy-PGF2 α methyl ester [Test Drug 23]”, for which, in the data set with blood pressure, the “Change in Blood Pressure (%)” value is “+5%”. Same read-out and setting: the result for “13,14-dihydro-15-keto-16R,S-fluoro-11R-dehydroxy-11R-methyl-PGF2 α methyl ester [Test Drug 8]” reads “+44%”; that for “13,14-dihydro-15-keto-16R,S-fluoro-PGF2 α [Test Drug 5]”, “+7%”; that for “13,14-dihydro-15-keto-16R,S-fluoro-PGF2 α methyl ester [Test Drug 6]”, “+18%”.

In the case of “13,14-dihydro-15-keto-17S-methyl-PGF2 α ethyl ester [Test Drug 13]”, in the data set with blood pressure, the “Change in Blood Pressure (%)” value is “+18%”. On the same count and under the same terms, the result for “13,14-dihydro-15-keto-20-ethyl-11R-dehydroxy-11R-methyl-PGF2 α methyl ester [Example 15]” reads “+7%”; that for “13,14-dihydro-15-keto-20-ethyl-16R,S-fluoro-11R-dehydroxy-11R-methyl-PGF2 α methyl ester [Test Drug 12]”, “+13%”; that for “13,14-dihydro-15-keto-20-ethyl-16R,S-fluoro-PGF2 α [Test Drug 10]”, “+35%”. On the same count and under the same terms, then “13,14-dihydro-15-keto-20-ethyl-16R,S-fluoro-PGF2 α methyl ester [Test Drug 11]”, with “+8%”; and “13,14-dihydro-15-keto-20-ethyl-PGF1 α methyl ester [Test Drug 25]”, with “+32%”.

As for “13,14-dihydro-15-keto-20-ethyl-PGF2 α [Test Drug 15]”, in the data set with blood pressure, the “Change in Blood Pressure (%)” value is given as “+24%”. The same measure, in the same setting: the result for “13,14-dihydro-15-keto-20-ethyl-PGF2 α ethyl ester [Test Drug 17]” reads “+20%”. In the case of “13,14-dihydro-15-keto-20-ethyl-PGF2 α isopropyl ester [Test Drug 18]”, the “LD50 (oral)” value with mouse is listed as over 2000 mg/kg. Moreover, in the data set on blood pressure, the “Change in Blood Pressure (%)” value is recorded as “+16%”. In addition, in the data set with blood pressure (rat), the “Blood Pressure” value is “.uparw. (increase more than 10%)”.

Turning to “13,14-dihydro-15-keto-20-ethyl-PGF2 α methyl ester [Test Drug 16]”, the “LD50 (oral)” value in the data set with mouse is given as over 2000 mg/kg. In addition, the “Change in Blood Pressure (%)” value in the data set on blood pressure was “+26%”. Also, in the data set with blood pressure (rat), the “Blood Pressure” value was “.uparw. (increase more than 10%)”. In the case of “13,14-dihydro-15-keto-20-ethyl-PGF2 α n-butyl ester [Test Drug 19]”, the “Change in Blood Pressure (%)” value in the data set on blood pressure is listed as “+8%”. The same measure, in the same setting: then “13,14-dihydro-15-keto-20-methoxy-PGF2 α methyl ester [Example 9]”, with “+41%”.

“13,14-dihydro-15-keto-20-methyl-PGF2 α methyl ester [Test Drug 14]”: the “Change in Blood Pressure (%)” value in the data set on blood pressure is given as “+10%”. Regarding “13,14-dihydro-15-keto-20-n-butyl-PGF2 α methyl ester [Test Drug 22]”, in the data set on blood pressure, the “Change in Blood Pressure (%)” value is “+14%”. Same read-out and setting: the result for “13,14-dihydro-15-keto-PGF1 α ethyl ester [Test Drug 24]” reads “+27%”.

“13,14-dihydro-15-keto-PGF2 α methyl ester [Test Drug 1]”: in the data set with blood pressure, the “Change in Blood Pressure (%)” value is listed as “+14%”. The “Blood Pressure” value with blood pressure (rat) is “.uparw. (increase more than 10%)”. In the case of `CCCCC[C@H](O)/C=C/[C@@H]1[C@@H](C/C=C\CCCC(=O)O)[C@@H](O)C[C@H]1O` [PGF2 α, (Z)-7-[(1R,2R,3R,5S)-3,5-dihydroxy-2-{(E)-(3S)-3-hydroxy-1-octenyl}-cyclopentyl]-5-heptenoic acid, reference compound], in the data set with pulse, the Pulse entry is “.dwnarw. → .uparw” and the “effect on pulse (in words)” value is listed as “ephemeral decrease in pulse”. Besides, in the data set on blood pressure (rat), the “Blood Pressure” value was “.dwnarw. → .uparw” and the “effect on blood pressure (in words)” value was “ephemeral decrease in pulse as well as blood pressure”. As for `CCCCCC(=O)CC[C@@H]1[C@@H](C/C=C\CCCC(=O)OCC)[C@@H](O)C[C@H]1O` [Test Drug 2, 13,14-dihydro-15-keto-PGF2 α ethyl ester], the “Change in Blood Pressure (%)” value in the data set with blood pressure is recorded as “+17%”. Same read-out and setting: then `CCCCCCCCC(=O)CC[C@@H]1[C@@H](C/C=C\CCCC(=O)OC)[C@@H](O)C[C@H]1O` [Test Drug 21, 13,14-dihydro-15-keto-20-n-propyl-PGF2 α methyl ester], with “+16%”; and `CCCCCC(=O)CC[C@@H]1[C@@H](C/C=C\CCCC(=O)OC)[C@@H](O)C[C@H]1O` [compound 1], with “+12%”.
